Literature values as cited in patent publication EP0674651B1, “SUBSTITUTED 6-AZAANDROSTENONES” (priority 1992, dated 1994).

How the values were obtained:
[1] = biological target: T1, bovine adrenal 3β-hydroxy-Δ^5-steroid dehydrogenase / 3-keto-Δ^5-steroid isomerase (3βHSD) (Bos taurus, UniProt P14893); details: cited from earlier work
T1 construct: host or cells: bovine adrenal
T1 sequence (P14893 1-373): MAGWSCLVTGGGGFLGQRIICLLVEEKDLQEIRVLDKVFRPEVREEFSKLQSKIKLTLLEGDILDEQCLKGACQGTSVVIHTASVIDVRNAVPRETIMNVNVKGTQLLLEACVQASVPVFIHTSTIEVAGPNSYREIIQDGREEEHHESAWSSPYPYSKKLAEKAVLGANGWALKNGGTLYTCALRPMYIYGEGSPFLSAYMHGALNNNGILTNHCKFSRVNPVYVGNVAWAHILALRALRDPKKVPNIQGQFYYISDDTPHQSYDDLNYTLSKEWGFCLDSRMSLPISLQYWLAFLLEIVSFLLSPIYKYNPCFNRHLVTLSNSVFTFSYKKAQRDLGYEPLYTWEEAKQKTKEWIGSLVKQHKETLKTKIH

[2] = biological target: T2, porcine granulosa cell 3β-hydroxy-Δ^5-steroid dehydrogenase / 3-keto-Δ^5-steroid isomerase (3βHSD) (Sus scrofa, UniProt Q9N119); details: cited from earlier work
T2 construct: host or cells: porcine granulosa cells
T2 sequence (Q9N119 1-373): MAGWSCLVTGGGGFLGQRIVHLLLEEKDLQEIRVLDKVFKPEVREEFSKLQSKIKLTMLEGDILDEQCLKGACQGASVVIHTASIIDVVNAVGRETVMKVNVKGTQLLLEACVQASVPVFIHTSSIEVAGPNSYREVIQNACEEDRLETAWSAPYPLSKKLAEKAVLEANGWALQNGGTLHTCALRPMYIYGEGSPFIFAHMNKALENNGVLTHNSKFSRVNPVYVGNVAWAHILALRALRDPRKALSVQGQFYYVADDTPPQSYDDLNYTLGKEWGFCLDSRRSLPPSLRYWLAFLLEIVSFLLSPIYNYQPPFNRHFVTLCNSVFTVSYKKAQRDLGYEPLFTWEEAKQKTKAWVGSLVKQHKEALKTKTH

[3] = literature reports; cited from earlier work

Q: For `CCN(CC)C(=O)[C@H]1CC[C@H]2[C@@H]3CC[C@H]4N(C)C(=O)CC[C@]4(C)[C@H]3CC[C@]12C` [Compound 4-MA], which “inhibition of 3βHSD” value [1] is on record?
A: The value was “potent inhibition”.

Q: And the “inhibition of 3βHSD” value [2]?
A: The value was “potent inhibition”.

Q: What about the hepatotoxicity [3] of the same molecule?
A: Its hepatotoxicity is “hepatotoxicity”.
